Measurements published in the NIST ThermoML archive (doi:10.1021/je100529s).
Numbers after ± are expanded uncertainties.

Test: activity coefficient (dimensionless); of the first substance listed, at infinite dilution; xn = mol fraction of the nth substance listed
Settings: Liquid, Gas Stripping Method, x1 = 0

Row | Structure (SMILES) | activity coefficient (309.99 K) | activity coefficient (319.99 K) | activity coefficient (329.99 K) | activity coefficient (340.02 K) | activity coefficient (289.98 K) | activity coefficient (299.98 K) | activity coefficient (299.99 K) | activity coefficient (309.98 K) | activity coefficient (319.98 K) | activity coefficient (340.01 K) | activity coefficient (289.97 K)
1 | CC(F)F [1,1-difluoroethane] + Cc1ccc(O)cc1 | 4.46 ± 0.27 | 4.26 ± 0.26 | 4.07 ± 0.24 | 3.88 ± 0.23 | – | – | – | – | – | – | –
2 | CC(F)F [1,1-difluoroethane] + Cc1cccc(O)c1 | 4.37 ± 0.26 | 4.16 ± 0.25 | 3.98 ± 0.24 | – | 4.79 ± 0.29 | 4.59 ± 0.28 | – | – | – | – | –
3 | CC(F)F [1,1-difluoroethane] + Cc1ccccc1O | 3.84 ± 0.23 | 3.67 ± 0.22 | 3.49 ± 0.21 | – | – | – | 4.02 ± 0.24 | – | – | – | –
4 | C=CC=C [1,3-butadiene] + Cc1ccc(O)cc1 | 3.26 ± 0.2 | 3.16 ± 0.19 | 3.07 ± 0.18 | 2.99 ± 0.18 | – | – | – | – | – | – | –
5 | C=CC=C [1,3-butadiene] + Cc1cccc(O)c1 | 3.22 ± 0.19 | 3.13 ± 0.19 | 3.05 ± 0.18 | – | 3.32 ± 0.2 | 3.26 ± 0.2 | – | – | – | – | –
6 | C=CC=C [1,3-butadiene] + Cc1ccccc1O | 2.81 ± 0.17 | 2.72 ± 0.16 | 2.63 ± 0.16 | – | – | – | 2.87 ± 0.17 | – | – | – | –
7 | C=CCC [1-butene] + Cc1ccc(O)cc1 | 4.66 ± 0.28 | 4.55 ± 0.27 | 4.4 ± 0.26 | 4.26 ± 0.26 | – | – | – | – | – | – | –
8 | C=CCC [1-butene] + Cc1cccc(O)c1 | 4.62 ± 0.28 | 4.48 ± 0.27 | 4.36 ± 0.26 | – | 4.86 ± 0.29 | 4.75 ± 0.29 | – | – | – | – | –
9 | C=CCC [1-butene] + Cc1ccccc1O | 4.15 ± 0.25 | 4.03 ± 0.24 | 3.87 ± 0.23 | – | – | – | 4.29 ± 0.26 | – | – | – | –
10 | CC(C)C [2-methylpropane] + Cc1ccc(O)cc1 | 7.93 ± 0.48 | 7.62 ± 0.46 | 7.3 ± 0.44 | 7.03 ± 0.42 | – | – | – | – | – | – | –
11 | CC(C)C [2-methylpropane] + Cc1cccc(O)c1 | 7.87 ± 0.47 | 7.54 ± 0.45 | 7.21 ± 0.43 | – | 8.35 ± 0.5 | 8.11 ± 0.49 | – | – | – | – | –
12 | CC(C)C [2-methylpropane] + Cc1ccccc1O | 7.57 ± 0.45 | 7.14 ± 0.43 | 6.73 ± 0.4 | – | – | – | 7.92 ± 0.48 | – | – | – | –
13 | C=C(C)C [2-methylpropene] + Cc1ccc(O)cc1 | 4.44 ± 0.27 | 4.34 ± 0.26 | 4.2 ± 0.25 | 4.07 ± 0.24 | – | – | – | – | – | – | –
14 | C=C(C)C [2-methylpropene] + Cc1cccc(O)c1 | 4.42 ± 0.27 | 4.3 ± 0.26 | 4.16 ± 0.25 | – | 4.66 ± 0.28 | 4.56 ± 0.27 | – | – | – | – | –
15 | C=C(C)C [2-methylpropene] + Cc1ccccc1O | 3.98 ± 0.24 | 3.84 ± 0.23 | 3.7 ± 0.22 | – | – | – | 4.11 ± 0.25 | – | – | – | –
16 | C/C=C/C [(E)-2-butene] + Cc1ccc(O)cc1 | 4.48 ± 0.27 | 4.35 ± 0.26 | 4.25 ± 0.26 | 4.14 ± 0.25 | – | – | – | – | – | – | –
17 | C/C=C/C [(E)-2-butene] + Cc1cccc(O)c1 | 4.49 ± 0.27 | 4.35 ± 0.26 | 4.23 ± 0.25 | – | 4.68 ± 0.28 | 4.57 ± 0.27 | – | – | – | – | –
18 | C/C=C/C [(E)-2-butene] + Cc1ccccc1O | 4.13 ± 0.25 | 3.98 ± 0.24 | 3.82 ± 0.23 | – | – | – | 4.25 ± 0.26 | – | – | – | –

Row | Structure (SMILES) | activity coefficient (309.99 K) | activity coefficient (319.99 K) | activity coefficient (329.99 K) | activity coefficient (340.02 K) | activity coefficient (289.98 K) | activity coefficient (299.98 K) | activity coefficient (299.99 K) | activity coefficient (309.98 K) | activity coefficient (319.98 K) | activity coefficient (340.01 K) | activity coefficient (289.97 K)
19 | C/C=C\C [(Z)-2-butene] + Cc1ccc(O)cc1 | 4.12 ± 0.25 | 4.03 ± 0.24 | 3.91 ± 0.23 | 3.8 ± 0.23 | – | – | – | – | – | – | –
20 | C/C=C\C [(Z)-2-butene] + Cc1cccc(O)c1 | 4.09 ± 0.25 | 3.99 ± 0.24 | 3.88 ± 0.23 | – | 4.29 ± 0.26 | 4.2 ± 0.25 | – | – | – | – | –
21 | C/C=C\C [(Z)-2-butene] + Cc1ccccc1O | 3.69 ± 0.22 | 3.57 ± 0.21 | 3.44 ± 0.21 | – | – | – | 3.79 ± 0.23 | – | – | – | –
22 | CCCC [butane] + Cc1ccc(O)cc1 | 6.88 ± 0.41 | 6.62 ± 0.4 | 6.32 ± 0.38 | 6.09 ± 0.37 | – | – | – | – | – | – | –
23 | CCCC [butane] + Cc1cccc(O)c1 | 6.88 ± 0.41 | 6.6 ± 0.4 | 6.33 ± 0.38 | – | 7.22 ± 0.43 | 7.06 ± 0.42 | – | – | – | – | –
24 | CCCC [butane] + Cc1ccccc1O | 6.61 ± 0.4 | 6.26 ± 0.38 | 5.92 ± 0.36 | – | – | – | 6.92 ± 0.42 | – | – | – | –
25 | CCCl [chloroethane] + Cc1ccc(O)cc1 | – | – | 1.98 ± 0.12 | – | – | – | – | 2.09 ± 0.13 | 2.06 ± 0.12 | 1.93 ± 0.12 | –
26 | CCCl [chloroethane] + Cc1cccc(O)c1 | – | 1.99 ± 0.12 | 1.93 ± 0.12 | – | – | 2.1 ± 0.13 | – | 2.05 ± 0.12 | – | – | 2.13 ± 0.13
27 | CCCl [chloroethane] + Cc1ccccc1O | – | – | 1.7 ± 0.1 | – | – | – | 1.83 ± 0.11 | 1.77 ± 0.11 | 1.76 ± 0.11 | – | –
28 | COC [dimethyl ether] + Cc1ccc(O)cc1 | – | – | 0.21 ± 0.01 | – | – | – | – | 0.16 ± 0.01 | 0.19 ± 0.01 | 0.24 ± 0.02 | –
29 | COC [dimethyl ether] + Cc1cccc(O)c1 | – | 0.18 ± 0.01 | 0.2 ± 0.01 | – | – | 0.13 ± 0.01 | – | 0.15 ± 0.01 | – | – | 0.11 ± 0.01
30 | COC [dimethyl ether] + Cc1ccccc1O | – | – | 0.18 ± 0.01 | – | – | – | 0.1 ± 0.01 | 0.12 ± 0.01 | 0.14 ± 0.01 | – | –
31 | CCC [propane] + Cc1ccc(O)cc1 | 6.29 ± 0.38 | 6.12 ± 0.37 | 5.93 ± 0.36 | 5.74 ± 0.34 | – | – | – | – | – | – | –
32 | CCC [propane] + Cc1cccc(O)c1 | 6.24 ± 0.37 | 6.06 ± 0.36 | 5.88 ± 0.35 | – | 6.31 ± 0.38 | 6.36 ± 0.38 | – | – | – | – | –
33 | CCC [propane] + Cc1ccccc1O | 6.04 ± 0.36 | 5.83 ± 0.35 | 5.58 ± 0.33 | – | – | – | 6.34 ± 0.38 | – | – | – | –
34 | C=CC [propene] + Cc1ccc(O)cc1 | 4.07 ± 0.24 | 4.02 ± 0.24 | 3.92 ± 0.24 | 3.84 ± 0.23 | – | – | – | – | – | – | –
35 | C=CC [propene] + Cc1cccc(O)c1 | 4.05 ± 0.24 | 3.97 ± 0.24 | 3.88 ± 0.23 | – | 4.1 ± 0.25 | 4.13 ± 0.25 | – | – | – | – | –
36 | C=CC [propene] + Cc1ccccc1O | 3.71 ± 0.22 | 3.6 ± 0.22 | 3.48 ± 0.21 | – | – | – | 3.81 ± 0.23 | – | – | – | –
